The values below come from patent publication US12102631B2, “Quinolylnitrones for the treatment and prevention of a cerebral stroke or ischaemia” (ISQUAEMIA BIOTECH, S.L., priority 2018, dated 2024).

Like-named read-outs stand apart in the source and are kept apart here.

Experiment [1] has as its system tMCAO in C57BL/6 mice. To be noted: 40 mg/kg; data recently reported by the group; cited from earlier work.
Experiment [2] has as its system tMCAO in C57BL/6 mice. As to the kind of experiment: Infarct size (TTC staining) after tMCAO. The experiment is classed as in vivo. As to conditions: 2.0 mg/kg; 48 h after tMCAO. The method, then:
Animal model of focal cerebral ischemia. Transient occlusion of a distal branch of the middle cerebral artery (tMCAO) was induced in male C57BL/6 mice (9-12 week old, Charles River) as previously described.^57 The animals were housed in a light/dark cycle (12 hour), humidity and temperature (22±2° C.) controlled environment with food and water available ad libitum. Briefly, mice were anesthetized with 4% isoflurane for induction and 1.5-2% isoflurane for maintenance (in 79% N2/21% O2). After drilling a small hole on the temporal bone, the middle cerebral artery (MCA) was compressed for 60 min with a 30-G needle using a micromanipulator. During the surgery, body temperature was maintained between 37.0±0.5° C. using a homoeothermic blanket and CBF was monitored using laser-Doppler flowmetry to confirm MCA occlusion. […]
Infarct volume evaluation. The size of infarction was evaluated at 48 hours after MCAO using 2,3,5-tetrazolium chloride (TTC) staining.^58 Mice were sacrificed by transcardial perfusion with ice-cold saline under deep anesthesia. […] The infarct areas were measured using the Image-J software and the infarct volume was determined by linear integration of the measured lesion areas and distances over the sections. […]
To examine the efficacy of QN 23 treatment in animals subjected to tMCAO, the infarct size was calculated 48 h after tMCAO model induction. […]

The subject of experiment [3] is Carrageenan-induced rat paw edema. As to the kind of experiment: Inhibition of Carrageenan-induced rat paw edema. Format: in vivo, Fisher 344 rats. As to conditions: 0.01 mmol/kg intraperitoneally; 3.5 h after Carrageenan. The method, then:
Inhibition of the Carrageenan-induced edema. Edema was induced in the right hind paw of Fisher 344 rats (150-200 g) by the intradermal injection of 0.1 mL 2% Carrageenan in water. Both sexes were used. Females pregnant were excluded. Each group was composed of 6 animals. The experiment was performed twice for validation. The animals, which have been bred in our laboratory, were housed under standard conditions and received a diet of commercial food pellets and water ad libitum during the maintenance, but they were entirely fasted during the experiment period. Nitrone 23 as well as of the standard drug indomethacin in 0.01 mmol/kg body weight, were diluted in water with few drops of Tween 80 and ground in a mortar before use and they were given intraperitoneally simultaneously with the Carrageenan injection. The rats were euthanized 3.5 h after Carrageenan administration. The difference between the weight of the injected and uninjected paws was calculated for each animal. The change in paw weight was compared with that in control animals (treated with water/or Tween-water) and expressed as a percent inhibition of the edema % ICPE values (Table 2). Values % ICPE are the mean from two different experiments (n=6 animals each time) with a standard error of the mean less than 10%.

Experiment [4] deals with tMCAO in C57BL/6 mice. As to the kind of experiment: Grip strength test after transient middle cerebral artery occlusion (tMCAO). Format: in vivo. The method, then: Animal model of focal cerebral ischemia. Transient occlusion of a distal branch of the middle cerebral artery (tMCAO) was induced in male C57BL/6 mice (9-12 week old, Charles River) as previously described.^57 The animals were housed in a light/dark cycle (12 hour), humidity and temperature (22±2° C.) controlled environment with food and water available ad libitum. Briefly, mice were anesthetized with 4% isoflurane for induction and 1.5-2% isoflurane for maintenance (in 79% N2/21% O2). After drilling a small hole on the temporal bone, the middle cerebral artery (MCA) was compressed for 60 min with a 30-G needle using a micromanipulator. During the surgery, body temperature was maintained between 37.0±0.5° C. using a homoeothermic blanket and CBF was monitored using laser-Doppler flowmetry to confirm MCA occlusion. Buprenorphine (0.05-0.1 mg/kg) was administered subcutaneously immediately before the procedure. A total of 28 mice were subjected to tMCAO according to the design of the study. We performed a power analysis to determine sample size (significance level set at 0.05, the power set at 0.8 (80%)) resulting in 8 animals per experimental group. Surgical inclusion criteria: a reduction in blood flow to <25% of baseline value during ischemia period, and a recovery of 75% of baseline value in the reperfusion period. […] Mice were randomly assigned using a randomization software to the following experimental groups (n=8 per group): vehicle (saline-EtOH 90:10 vol/vol), nitrone 23 (1.5 mg/kg) and nitrone 23 (2.0 mg/kg). The treatments were administered intraperitoneally at the onset of reperfusion period by a blinded investigator. […]
Motor-deficit evaluation, grip strength test. […] A total of 6 trials were conducted for each test and the strength value was calculated as the mean of them.
To assess the neuroprotective effect of QN 23 on experimental ischemic stroke, we induced a transient middle cerebral artery occlusion (tMCAO) and evaluated the motor deficits by grip strength test at 24 h and 48 h after the administration of QN 23. […]

The subject of experiment [5] is primary neuronal cultures subjected to OGD. Kind of experiment: ROS formation in primary neuronal cultures after OGD. The experiment is classed as cell-based, rat. To be noted: 2 h recovery after 4 h OGD; significant at 100 μM. The method, then:
Measurement of the ROS formation. To detect the intracellular ROS formation a nonfluorescent and cell permeable reagent was used according to the supplier instructions (Sigma, MAK143). The reagent enters into the cells and reacts with ROS (especially superoxide and hydroxyl radicals) in the cytoplasm, resulting in a fluorometric product proportional to the amount of ROS present. The reagent was added to the cells at the moment that they were subjected to different treatments. After recovery period for 2 h, the fluorescence intensity was at 490 nm λex and 535 nm λem.
Exposure of neuronal cultures to 4 h OGD induced significant ROS generation after 2 h recovery in normoxic and normoglycemic conditions (R2 h) (210%, p<0.005 compared with 100% control) (FIG. 5A). […] ROS generation may induce lipid peroxidation and cell membrane damage. […] The decrease of ROS formation and lipid peroxidation were significant at 100 μM QN 23, in accordance with the concentration at which the QN 23 had the higher neuroprotective activity against experimental ischemia in neuronal cultures (FIG. 4 and Table 1).

As for `CC(C)(C)/[N+]([O-])=C/c1ccc(S(=O)(=O)O)cc1S(=O)(=O)O` [Compound 2, sodium (Z)-4-((tert-butyloxidoazanylidene)methyl)benzene-1,3-disulfonate, reference compound], the “size of the ischemic lesion (in words)” value in the experiment with tMCAO in C57BL/6 mice [1] is reported as “did not reduce the size of the ischemic lesion”.
For `COc1ccc2nc(Cl)c(/C=[N+](\[O-])C(C)(C)C)cc2c1` [Compound 23, (Z)—N-tert-Butyl-1-(2-chloro-6-methoxyquinolin-3-yl)methanimine oxide], the “size of the ischemic lesion (in words)” value in the experiment with tMCAO in C57BL/6 mice [2] was “significantly lower than in vehicle treated animals”. In experiment [3], the ICPE % was determined as 48.5 ± 0.8 %. Besides, the “motor deficit compared with vehicle (in words)” value with tMCAO in C57BL/6 mice [4] (1.5 mg/kg and 2.0 mg/kg, 48 h after treatment) is given as “significant decrease of motor deficit”. The “grip strength compared with vehicle (in words)” value with tMCAO in C57BL/6 mice [4] (2.0 mg/kg, 24 h after treatment) is reported as “improvement in the grip strength which was significant”. Also, the “improvement of grip strength” value in the experiment with tMCAO in C57BL/6 mice [4] (48 h after treatment) was determined as 20.7%. For the same compound, the ROS formation entry in experiment [5] was “significantly decreased to the control value”.
